According to patent US6653478B2, “Substituted benzimidazol-2-ones as vasopressin receptor antagonists and neuropeptide Y modulators” (Ortho-McNeil Pharmaceutical, Inc., priority 2000, dated 2003):
pIC50: −log10 of the molar value. Structures can show the parent of a compound that is named as a salt.

Assays:
human V1b receptor = target: T1, human V1b receptor (Homo sapiens, UniProt P47901); test: V1b binding assay (3H-AVP displacement, HEK-293 membranes); parameters: expressed in transfected cells; host or cells: HEK-293 (membranes); conditions: for inhibition at 1 µM: 1.0 μM compound, read-out: V1b@1.0, % Inh; for inhibition at 10 µM: 10 μM compound, read-out: V1b % Inh @10
T1 sequence (P47901 1-424): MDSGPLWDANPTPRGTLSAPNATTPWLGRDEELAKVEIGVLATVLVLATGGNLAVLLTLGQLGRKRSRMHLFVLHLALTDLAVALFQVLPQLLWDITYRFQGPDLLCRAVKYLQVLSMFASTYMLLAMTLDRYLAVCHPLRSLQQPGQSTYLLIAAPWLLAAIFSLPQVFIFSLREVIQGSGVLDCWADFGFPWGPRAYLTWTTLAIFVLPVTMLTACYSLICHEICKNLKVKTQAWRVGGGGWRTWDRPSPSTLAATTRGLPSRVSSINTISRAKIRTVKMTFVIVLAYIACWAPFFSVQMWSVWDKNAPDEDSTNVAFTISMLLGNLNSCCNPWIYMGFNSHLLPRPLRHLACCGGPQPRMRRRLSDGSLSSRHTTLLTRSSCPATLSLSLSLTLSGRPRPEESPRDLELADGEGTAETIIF
Summary of the method: (§1)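 Membranes from transfected HEK-293 cells incubated 1 h at room temperature with ³H-AVP (10,000 cpm) in 50 mM Tris, 5 mM MgCl2, 0.1% BSA, pH 7.5 plus protease inhibitors. Non-specific binding set with 1.25 μM AVP. Bound tracer collected on PEI-soaked GF/C filters and counted by scintillation.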

human V1a receptor = human V1a receptor (Homo sapiens, UniProt P37288); test: V1a binding assay (3H-AVP displacement, HEK-293 membranes); parameters: expressed in transfected cells; host or cells: HEK-293 (membranes); conditions: for inhibition at 1 µM: 1.0 μM compound, read-out: V1a@1.0, % Inh
human V1a receptor, sequence (P37288 whole entry): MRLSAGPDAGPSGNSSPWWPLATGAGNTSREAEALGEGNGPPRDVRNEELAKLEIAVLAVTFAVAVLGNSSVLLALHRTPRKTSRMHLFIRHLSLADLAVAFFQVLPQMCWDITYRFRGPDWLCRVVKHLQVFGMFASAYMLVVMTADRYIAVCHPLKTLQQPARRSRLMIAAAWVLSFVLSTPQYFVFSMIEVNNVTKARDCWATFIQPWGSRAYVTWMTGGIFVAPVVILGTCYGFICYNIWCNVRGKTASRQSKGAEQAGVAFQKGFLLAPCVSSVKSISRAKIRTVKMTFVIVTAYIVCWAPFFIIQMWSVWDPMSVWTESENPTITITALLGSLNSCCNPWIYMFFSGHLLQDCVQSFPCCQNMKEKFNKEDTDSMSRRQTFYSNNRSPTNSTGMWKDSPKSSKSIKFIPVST
Summary of the method: as §1

human V2 receptor = human V2 receptor (Homo sapiens, UniProt P30518); test: V2 binding assay (3H-AVP displacement, HEK-293 membranes); parameters: expressed in transfected cells; host or cells: HEK-293 (membranes); conditions: 1.0 μM compound; read-out: V2@1.0, % Inh
human V2 receptor, sequence (P30518 whole entry): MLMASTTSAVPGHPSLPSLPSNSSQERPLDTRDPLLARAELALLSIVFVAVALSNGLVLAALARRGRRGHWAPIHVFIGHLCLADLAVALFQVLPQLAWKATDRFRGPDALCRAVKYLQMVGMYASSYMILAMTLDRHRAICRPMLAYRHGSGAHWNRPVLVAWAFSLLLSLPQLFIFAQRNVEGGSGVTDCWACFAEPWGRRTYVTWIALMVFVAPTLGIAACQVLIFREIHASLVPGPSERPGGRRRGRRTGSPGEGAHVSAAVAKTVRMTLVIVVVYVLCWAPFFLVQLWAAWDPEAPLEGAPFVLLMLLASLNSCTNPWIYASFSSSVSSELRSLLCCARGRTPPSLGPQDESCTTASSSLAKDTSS
Summary of the method: as §1

NPY2 receptors = target: T2, NPY2 receptors (Homo sapiens, UniProt P49146); test: Neuropeptide Y receptor binding assay (125I-PYY, KAN-TS cell membranes); conditions: 10 μM compound; read-out: NPY-2@10, % Inh
T2 construct: Cell Membranes from KAN-TS cells having NPY2 receptors; endogenous in cells; host or cells: KAN-TS cells (membranes)
T2 sequence (P49146 1-381): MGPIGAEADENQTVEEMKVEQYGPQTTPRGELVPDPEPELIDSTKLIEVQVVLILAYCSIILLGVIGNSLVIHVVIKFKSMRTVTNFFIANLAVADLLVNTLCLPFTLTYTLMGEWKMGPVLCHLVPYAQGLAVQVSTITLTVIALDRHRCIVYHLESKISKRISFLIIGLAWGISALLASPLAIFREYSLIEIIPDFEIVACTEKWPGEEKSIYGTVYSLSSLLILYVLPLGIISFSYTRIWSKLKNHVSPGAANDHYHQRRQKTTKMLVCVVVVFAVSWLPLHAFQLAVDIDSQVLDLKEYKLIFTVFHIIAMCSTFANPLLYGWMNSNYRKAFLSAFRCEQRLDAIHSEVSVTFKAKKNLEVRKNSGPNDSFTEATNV
Experimental: Neuropeptide Y Receptor Binding Assay
Load 96-well RIA racks with RIA vials (Sarstedt, cat. #73.1055)
Prepare membranes—use 2×15 cm confluent plates/96-well assay plate
Add 14 mls Homogenization buffer/cell pellet
Homogenize at high speed for 15 seconds
Transfer to 15 ml conical tube and spin 5′ at 4° C. at setting 3 in RT6000 centrifuge
Transfer supernatant to 30 ml Corex tube
Balance and spin 25′ at 15,000 rpm at 4° C.
Resuspend pellet in 10 mls Binding buffer
Homogenize at high speed for 15 sec.
Bring volume up to 50 mls in Binding buffer (25 mls/2×96-well plates)
Keep on ice until use or freeze in aliquots (2 plates/tube) in −70° C.
Prepare ^125I-PYY (for 2×96-well compound plates)
Dilute 50 uCi ^125I-PYY in 1 ml H2O
Add 0.4 ml 10% BSA to 20 ml Binding buffer
Add 150 μl ^125I-PYY, mix well
NSB (1 μM PYY final conc.): 40 μl PYY (100 μM stock)+60 μl 30% DMSO in HEPES=40 μM PYY—add 5 μl/well
Total Binding: Add 5 μl/well of Compound Diluent
Add 5 μl compound (final conc. @10 μM)
Incubate at R.T. for 1 hr.
Spin plates for 10′ at setting 9 in RT6000 centrifuge
Aspirate supernatant from tubes, add 300 μl PBS and aspirate again.
After plates are washed and aspirated, put individual tubes in 12×75 mm polypropylene carrier tubes. Count on gamma counter.

Row | SMILES | inhibition at 1 µM (human V1b receptor) | pIC50 (human V1a receptor) | inhibition at 1 µM (human V2 receptor) | inhibition at 10 µM (NPY2 receptors) | pIC50 (human V1b receptor) | inhibition at 10 µM (human V1b receptor) | inhibition at 0.1 µM (human V1a receptor; 0.1 μM compound, read-out: V1a % Inh @0.1) | inhibition at 1 µM (human V1a receptor)
1 | CCN(CC)CCn1c(=O)n(C2CCN(C(=S)NC(Cc3ccccc3)C(=O)O)CC2)c2ccccc21 [Compound 43, 1-(N1-Piperidinocarbothioyl-(2-phenyl-1-L-carboxy)amino-4-yl)-3-(2-diethyaminoethyl)-1,3-dihydrobenzimidazol-2-one] |  |  | 10% | 13% |  | 16% |  | 39%
2 | COC(=O)[C@@H](Cc1c[nH]c2ccccc12)NC(=S)N1CCC(n2c(=O)[nH]c3ccccc32)CC1 [Compound 50] |  |  | 0% | 16% |  | 15% |  | 8%
3 | CCN(CC)CCn1c(=O)n(C2CCN(C(=O)Nc3ccccc3C)CC2)c2ccccc21 [Compound 92, 1-[(N1-Piperidinocarbonyl-2-methylphenylamino)-4-yl]-3-(2-N,Ndiethylaminoethyl)-1,3-dihydrobenzimidazol-2-one] | 5% |  | 3% | 0% |  |  |  | 3%
4 | O=C(NC(c1ccccc1)c1ccccc1)N1CCC(n2c(=O)[nH]c3ccccc32)CC1 [Compound 75] |  |  | 0% | 12% | 6.00 |  |  | 58%
5 | O=c1[nH]c2ccccc2n1C1CCN(C(=S)NCc2ccc3c(c2)OCO3)CC1 [Compound 16] |  |  | 0% | 15% |  | 15% |  | 40%
6 | NC(=O)C(Cc1ccccc1)NC(=S)N1CCC(n2c(=O)[nH]c3ccccc32)CC1 (stereo not drawn) [Compound 47] |  |  | 14% | 10% |  | 0% |  | 45%
7 | O=C(Nc1ccccc1-c1ccccc1)N1CCC(n2c(=O)[nH]c3ccccc32)CC1 [Compound 49] |  |  | 0% | 12% |  | 18% |  | 63%
8 | O=c1[nH]c2ccccc2n1C1CCN(C(=S)NCc2ccc(Cl)cc2)CC1 [Compound 28] |  |  | 0% | 24% |  | 3% |  | 22%
9 | CCCc1ccccc1NC(=O)N1CCC(n2c(=O)n(CCCN3CCCCC3)c3ccccc32)CC1 [Compound 117, 1-[(N1-piperidinocarbonyl-2-propylphenylamino)-4-yl]-3-(3-N-piperidinylpropyl)-1,3-dihydrobenzimidazol-2-one] | 43% | 6.48 | 15% | 1% |  |  |  | 68%
10 | CC(Cc1ccc(Cl)cc1)NC(=S)N1CCC(n2c(=O)[nH]c3ccccc32)CC1 (stereo not drawn) [Compound 30] |  | 6.41 | 9% | 23% |  | 0% |  | 
11 | O=c1[nH]c2ccccc2n1C1CCN(C(=S)NCc2cccnc2)CC1 [Compound 29] |  | 5.72 | 2% | 11% |  | 0% |  | 
12 | O=c1n(CCCN2CCCCC2)c2ccccc2n1C1CCN(C(=S)NCc2ccccc2)CC1 [Compound 105, 1-[(N1-piperidinocarbothioylbenzylamino)-4-yl]-3-(3-N-piperidinylpropyl)-1,3-dihydrobenzimidazol-2-one] | 30% | 6.73 | 0% | 12% |  |  |  | 58%

Second part, the compound after the results:

Row | inhibition at 1 µM (human V1b receptor) | pIC50 (human V1a receptor) | inhibition at 1 µM (human V2 receptor) | inhibition at 10 µM (NPY2 receptors) | pIC50 (human V1b receptor) | inhibition at 10 µM (human V1b receptor) | inhibition at 0.1 µM (human V1a receptor; 0.1 μM compound, read-out: V1a % Inh @0.1) | inhibition at 1 µM (human V1a receptor) | SMILES
13 | 48% | 7.80 | 13% | 80% |  |  |  |  | CCCN(CCC)CCCn1c(=O)n(C2CCN(C(=S)NC(c3ccccc3)c3ccccc3)CC2)c2ccccc21 [Compound 79, 1-[(N1-piperidinocarbothioylbiphenylmethylamino)-4-yl]-3-(3-N,N-dipropylaminopropyl)-1,3-dihydrobenzimidazol-2-one]
14 |  | 7.66 | 8% | 73% | 6.56 |  |  |  | O=c1n(CCCN2CCOCC2)c2ccccc2n1C1CCN(C(=S)NC(c2ccccc2)c2ccccc2)CC1 [Compound 84, 1-[(N1-piperidinocarbothioylbiphenylmethylamino)-4-yl]-3-(3-morpholinopropyl)-1,3-dihydrobenzimidazol-2-one]
15 |  |  | 0% | 11% | 5.34 | 66% | 46% |  | COc1ccc(C(NC(=S)N2CCC(n3c(=O)n(CCCN)c4ccccc43)CC2)c2ccc(OC)cc2)cc1 [Compound 68, 1-[(N1-Piperidinocarbothioyl-1,1-di(p-anisyl)methylamino)-4-yl]-3-(3-aminopropyl)-1,3-dihydrobenzimidazol-2-one Hydrochloride]
16 | 47% |  | 18% | 25% |  |  |  | 85% | C[C@H](NC(=S)N1CCC(n2c(=O)n(CCCN3CCCCC3)c3ccccc32)CC1)c1ccccc1 [Compound 116, 1-[(N1-piperidinocarbonthioyl-R-(−)-alpha-methylbenzylamino)-4-yl]-3-(3-N-piperidinylpropyl)-1,3-dihydrobenzimidazol-2-one]
17 | 47% | 7.36 | 2% | 79% |  |  |  |  | CCOC(=O)C1CCN(CCCn2c(=O)n(C3CCN(C(=S)NC(c4ccccc4)c4ccccc4)CC3)c3ccccc32)CC1 [Compound 83, 1-[(N1-piperidinocarbothioylbiphenylmethylamino)-4-yl]-3-[3-(4-ethylcarboxypiperidine)propyl]-1,3-dihydrobenzimidazol-2-one]
18 | 47% | 7.64 | 7% | 89% |  |  |  | 70% | CC1CCN(CCCn2c(=O)n(C3CCN(C(=S)NC(c4ccccc4)c4ccccc4)CC3)c3ccccc32)CC1 [Compound 113, 1-[(N1-piperidinocarbothioylbiphenylmethylamino)-4-yl]-3-(4-methylpiperidin-1-yl-propyl)-1,3-dihydrobenzimidazol-2-one]
19 |  |  | 17% | 74% |  | 41% |  | 95% | CN1CCN(CCCn2c(=O)n(C3CCN(C(=S)NC(c4ccccc4)c4ccccc4)CC3)c3ccccc32)CC1 [Compound 78, 1-[(N1-piperidinocarbothioylbiphenylmethylamino)-4-yl]-3-(3-N-(N-Methylpiperazino)propyl)-1,3-dihydrobenzimidazol-2-one]
20 |  | 7.66 | 0% | 85% | 6.75 |  |  |  | CN(CCCn1c(=O)n(C2CCN(C(=S)NC(c3ccccc3)c3ccccc3)CC2)c2ccccc21)C1CCCCC1 [Compound 98, 1-[(N1-piperidinocarbothioylbiphenylmethylamino)-4-yl]-3-(3-N,N-methylcyclohexylaminopropyl)-1,3-dihydrobenzimidazol-2-one]
